# Tested on: C. difficile
# Test: MIC against C. difficile, NCCLS agar dilution method for anaerobic bacteria
# Type: cell-based, Clostridium difficile
# Details: calcium 50 μg/ml
# Experimental: Minimum inhibitory concentrations (MICs) for C. difficile were determined and antimicrobial agent stock solutions were prepared and stored according to the NCCLS reference agar dilution method for anaerobic bacteria (M11-A5, 2001). Two-fold serial antibiotic dilutions were prepared in Wilkens-Chalgren agar (WCA). Test organisms were selected from 48 hour growth on Braziers (C.C.E.Y.) agar, subcultured in Schaedler broth to a density equivalent to a McFarland 0.5 standard (1×10^8 CFU/ml), with a final inoculum onto WCA plates of approximately 10^5 CFU/spot. Bacteroides fragilis ATCC 25285 was included as a reference control strain and Metronidazole was used as a reference antibiotic for quality control. All manipulations were performed in duplicate in ambient atmosphere in pre-reduced media with only brief exposure to oxygen. Plates were incubated anaerobically for 48 hours at 37° C. with the MIC defined as the concentration of drug where a marked reduction occurred in the appearance of growth on the test plate compared to growth on the anaerobic control plate.
# Culture media were supplemented with calcium ions (as calcium chloride) at 50 μg/ml except where higher concentrations are indicated.
smiles,measurement,value
"CC[C@H](C)[C@@H]1NC(=O)[C@@H]2NC(=O)[C@H](CC(C)C)NC(=O)[C@H](NC(=O)[C@@H]3CSC[C@@H](NC(=O)[C@@H](N)Cc4c[nH]c5ccccc45)C(=O)N[C@@H](CO)C(=O)NCC(=O)N[C@@H](Cc4c[nH]c5ccccc45)C(=O)N[C@@H](C(C)C)C(=O)N3)[C@H](C)SC[C@H](NC(=O)[C@H](CCC(=O)O)NC1=O)C(=O)NCC(=O)N[C@H]1C(=O)N[C@@H](CC(C)C)C(=O)N[C@@H](C(C)C)C(=O)N[C@@H](CS[C@H]2C)C(=O)N[C@@H](C)C(=O)N[C@H](C(=O)O)CS[C@H]1C [Compound IX, L-Tryp(0)deoxyactagardine B]",MIC C. difficile 19126,2 µg/mL
same,MIC C. difficile 37779,1 µg/mL
"CC[C@H](C)[C@@H]1NC(=O)[C@@H]2NC(=O)[C@H](CC(C)C)NC(=O)[C@H](NC(=O)[C@@H]3CSC[C@@H](NC(=O)[C@@H](N)C(C)C)C(=O)N[C@@H](CO)C(=O)NCC(=O)N[C@@H](Cc4c[nH]c5ccccc45)C(=O)N[C@@H](C(C)C)C(=O)N3)[C@H](C)SC[C@H](NC(=O)[C@H](CCC(=O)O)NC1=O)C(=O)NCC(=O)N[C@H]1C(=O)N[C@@H](CC(C)C)C(=O)N[C@@H](C(C)C)C(=O)N[C@@H](CS[C@H]2C)C(=O)N[C@@H](C)C(=O)N[C@H](C(=O)O)CS[C@H]1C [Compound VI, L-Val(0)deoxyactagardine B]",MIC C. difficile 19126,8 µg/mL
same,MIC C. difficile 37779,8 µg/mL

# Reference: patent publication US8465947B2, “Lantibiotic biosynthetic gene clusters from A. garbadinensis and A. liguriae” (Novacta Biosystems Limited, priority 2006, dated 2013)
